The source of these data is US20040259942A1, “Modulation of stat activity” (priority 2001, published 2004).

Assay [1] deals with BR293 cells. The assay is described as follows: DAPI staining, fluorescence microscopy (apoptosis). Format: cell-based, human. The following applies: full medium (10% FCS); 24 h. As for the experimental part:
OdDHL blocks BC cell oroliferation and induces apoptosis. BR293 cells were grown in full medium (10% FCS) in the absence or presence of OdDHL or the control OHHL. After 24 h, cell were harvested, stained with DAPI and examined by fluorescence microscopy.

The test system of assay [2] is BR293 cells. The assay is described as follows: Cell proliferation assay (cell counting). Type of assay: cell-based, human. Conditions: for growth of cultured cells (confluence): full medium, 48 h, 100 μM (FIG. 16a). On the procedure:
Equal numbers of BR293 and MDA-MB-468 cells were seeded in MEM containing 10% FCS into 10 cm dishes. […]. For the 48 time points, fresh medium containing the appropriate inhibitor was applied to the cells after 24 hours. Controls were allowed to grow for 48 hours in the absence of inhibitor. Thereafter, all the cells were washed twice with ice cold PBS, harvested and counted under a phase-contrast microscope. Values are expressed as averages+S.D. (n=3).
Equal numbers of BR293, MCF-10F, MCF-7, MDA-MB-468, HKEK293 and COS1 cells were seeded in the appropriate growth medium into 10 cm dishes. Cells were allowed to grow in the presence of various concentrations of OdDHL or OHHL for 24 or 48 hours. For the 48-hour time points, fresh medium containing the appropriate inhibitor was applied to the cells after 24 hours. Controls were allowed to grow for 48 hours in the absence of inhibitor. Thereafter, all the cells were washed twice with ice cold PBS, harvested and counted under a phase-contrast microscope. Values are expressed as averages ±S.D. (n=3).

Another assay concerns the target T1, ErbB1 (Homo sapiens, UniProt P00533).
T1 construct: Lysates were prepared, from which ErbB1 proteins were collected as immune complexes; endogenous in cells; host or cells: MDA-MB-468
The assay is described as follows: Tyrosine phosphorylation of ErbB1 (EGF-R): immunoprecipitation and anti-phosphotyrosine immunoblot. Format: cell-based. Conditions: MDA-MB-468 cells. In general terms: In western blotting, separated proteins are transferred to a membrane and probed.

A further assay relates to STAT3. Kind of assay: Serum-induced STAT3 tyrosine phosphorylation (immunoblot). Type of assay: cell-based, human. As for the experimental part:
(§1) For immunoprecipitation and immunoblotting experiments, cells were grown to confluence in 10 cm dishes and maintained in full medium or starved in serum-free medium overnight before the application of appropriate stimuli. Lysates were prepared in TBSN buffer (50 mM Tris-HCl pH7.5, 150 mM NaCl, 1 mM EDTA, 1% NP-40) supplemented with protease inhibitors (1 mM Na3 VO4, 10 mM Na4P2O7, 10 mM NaF, 5 mM EGTA, 10 mM Benzamidine, 0.2 mM PMSF and 1 μg/ml each of leupeptin, aprotinin, pepstatin). Lysates were cleared by centrifugation at 16,000×g for 10 minutes and used directly for immunoprecipitations or stored at −20° C. for further use.
Equal amounts of lysates were incubated with the appropriate antibody for 2 hours at 4° C.
Immune complexes were then allowed to bind to protein A-Sepharose beads for 1 hour at 4° C. and collected by centrifugation. Immunoprecipitates were washed three times in 100 mM Tris-HC1 pH 7.5, […], 1 mM EDTA, 0.1 mM PMSF, 0.5% NP-40. Thereafter, samples were taken up in sodium dodecyl sulphate (SDS) loading buffer and boiled for 5 min.
Samples were separated by electrophoresis through 6% polyacrylamide-SDS gels. Proteins were then transferred to polyvinylidene difluoride (PVDF) membranes with a semi-dry electroblotting apparatus. The membranes were incubated with appropriate primary antibodies at room temperature for 1 hour or 4° C. overnight according to suppliers' instructions, washed and stained with horseradish peroxidase-coupled secondary antibodies. The membranes were developed with an enhanced chemiluminescence kit (Amersham).
as §1, with “Na3VO4,” for “Na3 VO4,”, “aprotinin and” for “aprotinin,”, “use. AG490 was purchased from Sigma; PD153035 was provided by Glaxo-Smith-Kline and PD168393 was purchased from Calbiochem.” for “use.”
Equal amounts of lysates were incubated with the appropriate antibody for 2 hours at 4° C. Immune complexes were then allowed to bind to protein A-Sepharose beads for 1 hour at 4° C. and collected by centrifugation. Immunoprecipitates were washed three times in 10 mM Tris-HCl pH 7.5, 100 mM NaCl, 1 mM EDTA, 0.1 mM PMSF, 0.5% NP-40. Thereafter, samples were taken up in sodium dodecyl sulphate (SDS) loading buffer and boiled for 5 min.

For a further assay, the system named is p38^MAPK. The assay is described as follows: p38 MAPK phosphorylation in anisomycin-treated cells (Western blotting). Format: cell-based, human. Conditions: BR293 cells treated with anisomycin. On the procedure:
ERKs are unaffected by OdDHL (a) BR293 cells were serum-starved (lane 1) or starved and stimulated with TPA for 30 min alone (lane 2) or in the presence of increasing concentrations of OdDHL (lanes 3-6) or 100 μM OHHL (lane 7). Cell lysates were prepared and analysed by Western blotting for ERK phosphorylation with an antibody specific for phospho-ERK½ (upper panel) and for ERK content with an antibody against ERKs (lower panel). (b) BR293 cells were serum-starved (lane 1) or starved and stimulated with Anisomycin for 30 min alone (lane 2) or in the presence of increasing concentrations of OdDHL (lanes 3-6) or 100 μM OHHL (lane 7). Cell lysates were prepared and analysed by Western blotting for JNK/SAPK phosphorylation with an antibody specific for phospho-JNKs (upper panel) and for SAPK/JNK content with an antibody against JNKs (lower panel). (c) BR293 cells were treated as described in (b) and lysates were analysed by Western blotting for p38^MAPK phosphorylation with an antibody specific for phospho-p38 (upper panel) and for p38 content with an antibody against p38 (lower panel).

T1 sequence (P00533 25-1210): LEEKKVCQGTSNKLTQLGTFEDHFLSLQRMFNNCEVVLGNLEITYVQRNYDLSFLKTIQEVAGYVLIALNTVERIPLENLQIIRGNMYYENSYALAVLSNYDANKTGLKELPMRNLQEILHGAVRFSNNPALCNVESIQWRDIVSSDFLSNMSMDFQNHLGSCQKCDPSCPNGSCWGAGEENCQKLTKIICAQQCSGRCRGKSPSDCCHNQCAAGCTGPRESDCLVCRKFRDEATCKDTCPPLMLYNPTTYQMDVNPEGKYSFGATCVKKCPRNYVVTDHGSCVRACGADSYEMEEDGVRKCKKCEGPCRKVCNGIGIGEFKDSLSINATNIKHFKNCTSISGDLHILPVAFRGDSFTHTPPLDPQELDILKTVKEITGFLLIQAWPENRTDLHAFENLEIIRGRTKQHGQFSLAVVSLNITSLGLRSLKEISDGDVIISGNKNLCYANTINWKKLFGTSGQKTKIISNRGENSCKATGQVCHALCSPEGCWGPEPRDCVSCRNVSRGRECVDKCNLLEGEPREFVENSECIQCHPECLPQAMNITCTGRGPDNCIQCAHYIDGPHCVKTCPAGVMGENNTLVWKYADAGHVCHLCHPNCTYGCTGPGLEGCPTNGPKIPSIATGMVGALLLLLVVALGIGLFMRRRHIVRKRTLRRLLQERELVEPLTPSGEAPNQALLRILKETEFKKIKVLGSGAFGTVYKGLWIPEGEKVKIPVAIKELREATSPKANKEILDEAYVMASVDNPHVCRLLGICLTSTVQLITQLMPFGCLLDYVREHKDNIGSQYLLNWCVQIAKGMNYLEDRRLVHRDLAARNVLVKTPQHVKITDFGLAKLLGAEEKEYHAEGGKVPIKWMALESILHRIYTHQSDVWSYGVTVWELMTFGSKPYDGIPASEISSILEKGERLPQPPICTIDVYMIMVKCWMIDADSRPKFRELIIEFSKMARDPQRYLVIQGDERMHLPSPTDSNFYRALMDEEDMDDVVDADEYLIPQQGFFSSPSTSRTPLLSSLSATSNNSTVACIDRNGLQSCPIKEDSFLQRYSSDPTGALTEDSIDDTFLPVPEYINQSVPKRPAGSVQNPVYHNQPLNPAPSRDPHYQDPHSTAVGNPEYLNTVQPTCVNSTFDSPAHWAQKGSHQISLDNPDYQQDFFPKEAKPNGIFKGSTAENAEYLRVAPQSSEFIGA
Experimental for ErbB1: Immune complexes were then allowed to bind to protein A-Sepharose beads for 1 hour at 4° C. and collected by centrifugation. Immunoprecipitates were washed three times in 100 mM Tris-HC1 pH 7.5, 100 nM NaCl, 1 mM EDTA, 0.1 mM PMSF, 0.5% NP-40. Thereafter, samples were taken up in sodium dodecyl sulphate (SDS) loading buffer and boiled for 5 min.
Samples were separated by electrophoresis through 6% polyacrylamide-SDS gels. Proteins were then transferred to polyvinylidene difluoride (PVDF) membranes with a semi-dry electroblotting apparatus. […]

In the case of `CCCCCCCCCC(=O)CC(=O)N[C@H]1CCOC1=O` [OdDHL, N-(3-oxo-dodecanoyl)-L-homoserine lactone], the “nuclear morphology / viability after DAPI staining” value in the assay with BR293 cells [1] was “induced DNA condensation and nuclear fragmentation”. The “growth of cultured cells (confluence)” value in the assay on BR293 cells [2] is recorded as “grew poorly or not at all”. Further, the inhibition of proliferation in the assay with BR293 cells [2] (over a 48-hour period) is listed as 70%-80%. The “receptor tyrosine phosphorylation in response to EGF stimulation” value at ErbB1 (100 μM and even at lower concentrations (101M as printed)) is “potentiated receptor tyrosine phosphorylation in response to EGF stimulation several fold”. For the same molecule, the “tyrosine phosphorylation of the EGF-R in unstimulated cells” value at ErbB1 (OdDHL alone at 100 μM) is “caused an increase in detectable tyrosine phosphorylation of the EGF-R”. The “STAT3 phosphorylation at sub-inhibitory concentration” value with STAT3 (BR293 cells, 50 μM OdDHL) was “small increase”. Besides, the “delayed STAT3 phosphorylation in response to serum” value in the assay on STAT3 (BR293 cells, 100 μM pretreatment (FIG. 18c)) is recorded as “prevented the delayed STAT3 phosphorylation in response to serum”. In the assay with STAT3 (BR293 cells, pre-incubation (FIG. 11 upper panel)), the “serum-induced phosphorylation of STAT3” value was “blocked the serum-induced phosphorylation of STAT3”. Further, the “concentration at which serum-induced STAT3 tyrosine phosphorylation was inhibited” value in the assay with STAT3 (BR293 cells, pretreatment 15 minutes with increasing concentrations) was 100 µM. For the same molecule, the “threshold concentration for inactivation of serum-induced STAT3 phosphorylation” value in the assay with STAT3 (FIG. 15) is listed as “above 50 μM”. In the assay with p38^MAPK, the “p38^MAPK phosphorylation” value is given as “modest but reproducible inhibition”.

Regarding `CCCC(=O)CC(=O)N[C@H]1CCOC1=O` [OHHL, N-(3-oxohexanoyl)-L-homoserine lactone, reference compound], in the assay on BR293 cells [1], the “nuclear morphology / viability after DAPI staining” value is given as “remained viable”. In addition, in the assay on BR293 cells [2], the “growth of cultured cells (confluence)” value is reported as “reached confluence in 48 hours”. In the assay with STAT3 (BR293 cells, 100 μM), the “effect on serum-induced STAT3 tyrosine phosphorylation” value is reported as “only a slight effect”.
